Test results: patent publication US20140057895A1, “INDAZOLE- AND PYRROLOPYRIDINE-DERIVATIVE AND PHARMACEUTICAL USE THEREOF” (priority 2011, published 2014)
pEC50, pIC50: −log10 of the molar value. Structures can show the parent of a compound that is named as a salt.

Key:
[1] = target: T1, Human 5-HT4 receptor (5-HT4b) (Homo sapiens, UniProt Q13639); experiment: Test Example 3: Human 5-HT4 receptor binding assay, membranes of CHO-K1 cells stably expressing 5-HT4b receptors (Table 99); conditions: mean value of each group
T1 construct: expressed in transfected cells; membrane preparation
T1 sequence (Q13639 whole entry): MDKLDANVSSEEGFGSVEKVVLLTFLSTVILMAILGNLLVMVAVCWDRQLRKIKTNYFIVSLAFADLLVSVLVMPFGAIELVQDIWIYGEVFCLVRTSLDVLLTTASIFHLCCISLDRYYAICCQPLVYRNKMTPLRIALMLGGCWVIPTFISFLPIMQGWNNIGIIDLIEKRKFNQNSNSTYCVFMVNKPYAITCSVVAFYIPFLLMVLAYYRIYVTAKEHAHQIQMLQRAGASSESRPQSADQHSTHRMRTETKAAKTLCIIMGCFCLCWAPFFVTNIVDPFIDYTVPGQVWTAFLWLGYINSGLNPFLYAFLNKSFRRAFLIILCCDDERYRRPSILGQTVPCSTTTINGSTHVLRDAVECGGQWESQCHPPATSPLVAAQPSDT
Procedure: To an assay tube were added 0.1 nM [^3H]-GR113808 {chemical name: [1-[2-(methylsulfonylamino) ethyl]-4-piperidinyl]methyl 1-methylindole-3-carboxylate}, receptor membrane preparations, and Hepes buffer (50 mM, pH 7.4, 4° C., 1 ml) containing test compounds or 30 μM serotonin; and the mixture was incubated at 37° C. for 30 minutes. On quenching the reaction, the mixture was rapidly filtered on whatman GF/B filter, which was presoaked in 0.1% polyethyleneimine for 1 hour, by using Brandel cell Harvester, and washed with ice-cooled 50 mM Tris-HCl (pH 7.7, 4 ml) three times. To the filter after filtration was added a liquid scintillator (Ecoscint), and then a radioactivity was determined by a liquid scintillation counter.
50% Inhibition concentrations (IC50) were determined from inhibition rates of test compounds to specific bindings which were obtained by subtracting nonspecific bindings from total binding amounts of [^3H]-GR113808.
Human 5-HT4 receptor membrane preparations were prepared from CHO-K^1 cells which stably express 5-HT4b receptors, and human 5-HT4 receptor binding assay was carried out in a similar manner as in the guinea pig 5-HT4 receptor binding assay. The following tables show results of serotonin 4 (5-HT4) receptor binding assay. In the following tables, the compounds used in the test are shown in numbers which correspond to the Example numbers above where the preparations of the compounds are described.

5-HT4 receptor = target: T2, 5-HT4 receptor (Cavia porcellus, UniProt O70528); experiment: Test Example 3: Guinea pig 5-HT4 receptor binding assay, [3H]-GR113808, striatum membranes (Table 98); conditions: Guinea pig 5-HT4 receptor binding assay, [3H]-GR113808, striatum membranes; mean value of each group; read-out: IC50
T2 construct: striatum was isolated which was cryopreserved at −80° C. until use; from tissue; host or cells: guinea pig (Slc-Hartley) striatum membranes
T2 sequence (O70528 whole entry): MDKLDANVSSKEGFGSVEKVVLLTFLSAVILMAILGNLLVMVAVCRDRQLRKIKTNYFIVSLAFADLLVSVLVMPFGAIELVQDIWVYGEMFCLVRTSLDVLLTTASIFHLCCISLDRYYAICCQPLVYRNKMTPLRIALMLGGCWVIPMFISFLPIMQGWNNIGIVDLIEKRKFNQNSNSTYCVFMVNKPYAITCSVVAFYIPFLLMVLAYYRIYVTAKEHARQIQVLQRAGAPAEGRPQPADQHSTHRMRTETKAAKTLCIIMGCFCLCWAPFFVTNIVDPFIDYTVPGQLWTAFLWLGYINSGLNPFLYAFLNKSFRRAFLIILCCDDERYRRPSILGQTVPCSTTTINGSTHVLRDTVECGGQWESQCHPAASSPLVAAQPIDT
In short: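 Striatal membranes from Slc-Hartley guinea pigs were incubated with 0.1 nM [3H]-GR113808 and test compounds in 50 mM Hepes pH 7.4 at 37° C for 30 min; nonspecific binding was defined with 30 μM serotonin. Bound radioactivity was collected by filtration, and IC50 was derived from inhibition of specific binding.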

human 5-HT4b receptor = target: T3, human 5-HT4b receptor (Homo sapiens, UniProt Q13639); experiment: Test Example 4: Serotonin 4 (5-HT4) receptor agonist activity assay, cAMP HTRF in CHO cells (Table 100); format: cell-based; conditions: mean value; for Emax: CHO, 0.25 h, intrinsic activity, maximal activity of 5-HT defined as 100%, read-out: IA (%); for pEC50: concentration showing 50% of IA
T3 construct: expressed in transfected cells; host or cells: CHO cells (G418 selection)
T3 sequence (Q13639 whole entry): as the sequence (Q13639 whole entry) above
In short: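 Read-out is HTRF cAMP (time-resolved fluorescence 620/665 nm after 1 h RT with cAMP-cryptate and cAMP-d2), from recombinant CHO cells bearing human 5-HT4b treated with compound 15 min at 31° C. in Hanks/HEPES buffer pH 7.4. IA (%) scaled to peak 5-HT effect over 10^−11–10^−7 M; EC50 is concentration giving half that IA.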

pIC50 [1] | Compound | also measured
6.91 | CC(=O)N1CCCC(N[C@H]2CC[C@@H](c3nc(-n4nc(C(C)C)c5cccc(F)c54)no3)CC2)C1 (relative stereo) [Example 622, 1-{3-[(cis-4-{3-[7-fluoro-3-(propan-2-yl)-1H-indazol-1-yl]-1,2,4-oxadiazol-5-yl}cyclohexyl)amino]piperidin-1-yl}ethanone] | –
> 7.70 | CC(C)c1nn(-c2noc(C3CC(NC4CCCOC4)C3)n2)c2c(F)cccc12 (stereo not shown) [Example 600, N-(3-{3-[7-fluoro-3-(propan-2-yl)-1H-indazol-1-yl]-l,2,4-oxadiazol-5-yl}cyclobutyl)tetrahydro-2H-pyran-3-amine] | –
7.54 | CC(C)c1nn(-c2noc(C3CC(NCCC4CCOCC4)C3)n2)c2c(F)cccc12 (stereo not shown) [Example 603, 3-{3-[7-fluoro-3-(propan-2-yl)-1H-indazol-1-yl]-1,2,4-oxadiazol-5-yl}-N-[2-(tetrahydro-2H-pyran-4-yl)ethyl]cyclobutanamine] | –
6.98 | CC(C)c1nn(-c2noc([C@H]3CC[C@@H](NC4CCCOC4)CC3)n2)c2c(F)cccc12 (relative stereo) [Example 623, N-(cis-4-{3-[7-fluoro-3-(propan-2-yl)-1H-indazol-1-yl]-1,2,4-oxadiazol-5-yl}cyclohexyl)tetrahydro-2H-pyran-3-amine] | –
> 7.70 | CC(=O)N1CC[C@@H](NC2CC(c3nc(-n4nc(C(C)C)c5cccc(F)c54)no3)C2)C1 (stereo partly drawn) [Example 592, 1-{(3R)-3-[(3-{3-[7-fluoro-3-(propan-2-yl)-1H-indazol-1-yl]-1,2,4-oxadiazol-5-yl}cyclobutyl)amino]pyrrolidin-1-yl}ethanone] | –
7.16 | COCCNC1CCC(c2nc(-n3nc(C(C)C)c4cccc(F)c43)no2)CC1 (stereo not shown) [Example 621, 4-{3-[7-fluoro-3-(propan-2-yl)-1H-indazol-1-yl]-1,2,4-oxadiazol-5-yl}-N-(2-methoxyethyl)cyclohexanamine] | –
> 7.70 | CC(C)c1nn(-c2noc(C3CC(NCCC4CCOC4)C3)n2)c2c(F)cccc12 (stereo not shown) [Example 599, 3-{3-[7-fluoro-3-(propan-2-yl)-1H-indazol-1-yl]-1,2,4-oxadiazol-5-yl}-N-[2-(tetrahydrofuran-3-yl)ethyl]cyclobutanamine] | –
7.06 | CC(C)c1nn(-c2noc(C3CC(NC4COC4)C3)n2)c2c(F)cccc12 (stereo not shown) [Example 606, N-(3-{3-[7-fluoro-3-(propan-2-yl)-1H-indazol-1-yl]-1,2,4-oxadiazol-5-yl}cyclobutyl)oxetan-3-amine] | –
> 7.70 | CC(C)c1nn(-c2noc(C3CC(NC4CCOC4)C3)n2)c2c(F)cccc12 (stereo not shown) [Example 607, N-(3-{3-[7-fluoro-3-(propan-2-yl)-1H-indazol-1-yl]-1,2,4-oxadiazol-5-yl)cyclobutyl)tetrahydrofuran-3-amine] | –
7.26 | Cc1cccc2c1c(C(C)C)nn2-c1noc(C2CCN(C3CCOCC3)CC2)n1 [Example 424, 4-methyl-3-(propan-2-yl)-1-{5-[1-(tetrahydro-2H-pyran-4-yl)piperidin-4-yl]-1,2,4-oxadiazol-3-yl}-1H-indazole] | –
> 7.70 | CC(C)c1nn(-c2noc(C3CC(NCC4CCCOC4)C3)n2)c2c(F)cccc12 (stereo not shown) [Example 601, 3-{3-[7-fluoro-3-(propan-2-yl)-1H-indazol-1-yl]-1,2,4-oxadiazol-5-yl}-N-{tetrahydro-2H-pyran-3-ylmethyl)cyclobutanamine] | –
6.53 | CC(C)c1nn(-c2noc(C3CCN(C(C)(C)C(=O)O)CC3)n2)c2c(F)cccc12 [Example 401, 2-(4-{3-[7-fluoro-3-(propan-2-yl)-1H-indazol-1-yl]-1,2,4-oxadiazol-5-yl}piperidin-1-yl)-2-methylpropanoic acid hydrochloride] | –
> 7.70 | COc1nn(-c2noc(C3CCN(C4CCN(C(C)=O)CC4)CC3)n2)c2c(F)cccc12 [Example 624, 1-{4-[3-(7-fluoro-3-methoxy-1H-indazol-1-yl)-1,2,4-oxadiazol-5-yl]-1,4′-bipiperidin-1′-yl}ethanone] | –
7.69 | CC(C)c1nn(-c2noc(C3CCN(CCc4cccnc4)CC3)n2)c2c(F)cccc12 [Example 399, 7-fluoro-3-(propan-2-yl)-1-(5-{1-[2-(pyridin-3-yl)ethyl]piperidin-4-yl}-1,2,4-oxadiazol-3-yl)-1H-indazole] | –
> 7.70 | CC(C)c1nn(-c2noc([C@H]3C[C@H](NCCC4CCCCO4)C3)n2)c2c(F)cccc12 (relative stereo) [Example 598, trans-3-{3-[7-fluoro-3-(propan-2-yl)-1H-indazol-1-yl]-1,2,4-oxadiazol-5-yl}-N-[2-(tetrahydro-2H-pyran-2-yl)ethyl]cyclobutanamine] | –
7.41 | CC(C)c1nn(-c2noc(C3CCC(NCCC4CCCOC4)CC3)n2)c2c(F)cccc12 (stereo not shown) [Example 619, 4-{3-[7-fluoro-3-(propan-2-yl)-1H-indazol-1-yl]-1,2,4-oxadiazol-5-yl}-N-[2-(tetrahydro-2H-pyran-3-yl)ethyl]cyclohexanamine] | –
6.35 | CC(=O)N1CCC(N2CCC(c3nc(-n4nc(C(C)C)c5cccc(F)c54)no3)CC2C)CC1 (stereo not shown) [Example 418, 1-(4-{3-[7-fluoro-3-(propan-2-yl)-1H-indazol-1-yl]-1,2,4-oxadiazol-5-yl}-2-methyl-1,4′-bipiperidin-1′-yl}ethanone] | –
7.53 | CC(C)c1nn(-c2noc(C3CCN(C4C5CCCC4CN(C(=O)CO)C5)CC3)n2)c2c(F)cccc12 (stereo not drawn) [Example 535, 1-[(9-anti)-9-(4-{3-[7-fluoro-3-(propan-2-yl)-1H-indazol-1-yl]-1,2,4-oxadiazol-5-yl}piperidin-1-yl)-3-azabicyclo[3.3.1]non-3-yl]-2-hydroxyethanone] | –
7.56 | COCCN(C1CCOCC1)[C@H]1C[C@H](c2nc(-n3nc(C(C)C)c4cccc(F)c43)no2)C1 [Example 615, N-(trans-3-{3-[7-fluoro-3-(propan-2-yl)-1H-indazol-1-yl]-1,2,4-oxadiazol-5-yl}cyclobutyl)-N-(2-methoxyethyl)tetrahydro-2H-pyran-4-amine] | –
7.60 | CC(C)Cc1nn(-c2noc(C3CCN(C4CCN(C(=O)CO)CC4)CC3)n2)c2c(F)cccc12 [Example 526, 1-(4-{3-[7-fluoro-3-(2-methylpropyl)-1H-indazol-1-yl]-1,2,4-oxadiazol-5-yl}-1,4′-bipiperidin-1′-yl)-2-hydroxyethanone] | –
> 7.70 | CC(C)c1nn(-c2noc([C@H]3CC[C@H](NCC4CCCO4)CC3)n2)c2c(F)cccc12 (relative stereo) [Example 620, trans-4-{3-[7-fluoro-3-(propan-2-yl)-1H-indazol-1-yl]-1,2,4-oxadiazol-5-yl}-N-(tetrahydrofuran-2-ylmethyl)cyclohexanamine] | –
7.28 | CCOC(=O)N1CCC(N2CCC(c3nc(-n4nc(C(C)C)c5cccc(F)c54)no3)CC2)C(OC)C1 (stereo not shown) [Example 556, ethyl 4-{3-[7-fluoro-3-(propan-2-yl)-1H-indazol-1-yl]-1,2,4-oxadiazol-5-yl}-3′-methoxy-1,4′-bipiperidine-1′-carboxylate] | –
– | COCC(=O)N1CC(CN2CCC(c3nc(-n4nc(C(C)C)c5ccc(F)c(F)c54)no3)CC2)C1 [Example 473, 1-{3-[(4-{3-[6,7-difluoro-3-(propan-2-yl)-1H-indazol-1-yl]-1,2,4-oxadiazol-5-yl}piperidin-1-yl)methyl]azetidin-1-yl}-2-methoxyethanone trifluoroacetate] | pIC50 (5-HT4 receptor): 7.62; Emax (human 5-HT4b receptor): 58.5%; pEC50 (human 5-HT4b receptor): 7.64
– | CCc1nn(-c2noc(C3CCN(C4CCN(S(C)(=O)=O)CC4)CC3)n2)c2c(F)cccc12 [Example 241, 4-[3-(3-ethyl-7-fluoro-1H-indazol-1-yl)-1,2,4-oxadiazol-5-yl]-1′-(methylsulfonyl)-1,4′-bipiperidine] | pIC50 (5-HT4 receptor): > 7.70; Emax (human 5-HT4b receptor): 58.8%; pEC50 (human 5-HT4b receptor): 8.49
– | CC(C)c1nn(-c2noc(C3CCN(C4CCC4)CC3)n2)c2ccccc12 [Example 420, 1-[5-(1-cyclobutylpiperidin-4-yl)-1,2,4-oxadiazol-3-yl]-3-(propan-2-yl)-1H-indazole trifluoroacetate] | pIC50 (5-HT4 receptor): 7.13; Emax (human 5-HT4b receptor): 85.6%; pEC50 (human 5-HT4b receptor): 8.09
– | CC(C)c1nn(-c2noc(C3CCN(C4CCN(C(=O)CO)CC4)CC3)n2)c2ccccc12 [Example 519] | pIC50 (5-HT4 receptor): 7.57; Emax (human 5-HT4b receptor): 81.1%; pEC50 (human 5-HT4b receptor): 7.47
